Experimental findings from patent publication US20170291890A1 (Epizyme, Inc., priority 2014, published 2017) are described below.

pIC50: −log10 of the molar value.

For the assay, the target named is T1, KDM5A (Homo sapiens, UniProt P29375).
T1 construct: C-terminal FLAG-tagged KDM5A^1-1090 was purchased from BPS Biosciences; FLAG (C); purchased BPS Biosciences
T1 sequence (P29375 1-1090): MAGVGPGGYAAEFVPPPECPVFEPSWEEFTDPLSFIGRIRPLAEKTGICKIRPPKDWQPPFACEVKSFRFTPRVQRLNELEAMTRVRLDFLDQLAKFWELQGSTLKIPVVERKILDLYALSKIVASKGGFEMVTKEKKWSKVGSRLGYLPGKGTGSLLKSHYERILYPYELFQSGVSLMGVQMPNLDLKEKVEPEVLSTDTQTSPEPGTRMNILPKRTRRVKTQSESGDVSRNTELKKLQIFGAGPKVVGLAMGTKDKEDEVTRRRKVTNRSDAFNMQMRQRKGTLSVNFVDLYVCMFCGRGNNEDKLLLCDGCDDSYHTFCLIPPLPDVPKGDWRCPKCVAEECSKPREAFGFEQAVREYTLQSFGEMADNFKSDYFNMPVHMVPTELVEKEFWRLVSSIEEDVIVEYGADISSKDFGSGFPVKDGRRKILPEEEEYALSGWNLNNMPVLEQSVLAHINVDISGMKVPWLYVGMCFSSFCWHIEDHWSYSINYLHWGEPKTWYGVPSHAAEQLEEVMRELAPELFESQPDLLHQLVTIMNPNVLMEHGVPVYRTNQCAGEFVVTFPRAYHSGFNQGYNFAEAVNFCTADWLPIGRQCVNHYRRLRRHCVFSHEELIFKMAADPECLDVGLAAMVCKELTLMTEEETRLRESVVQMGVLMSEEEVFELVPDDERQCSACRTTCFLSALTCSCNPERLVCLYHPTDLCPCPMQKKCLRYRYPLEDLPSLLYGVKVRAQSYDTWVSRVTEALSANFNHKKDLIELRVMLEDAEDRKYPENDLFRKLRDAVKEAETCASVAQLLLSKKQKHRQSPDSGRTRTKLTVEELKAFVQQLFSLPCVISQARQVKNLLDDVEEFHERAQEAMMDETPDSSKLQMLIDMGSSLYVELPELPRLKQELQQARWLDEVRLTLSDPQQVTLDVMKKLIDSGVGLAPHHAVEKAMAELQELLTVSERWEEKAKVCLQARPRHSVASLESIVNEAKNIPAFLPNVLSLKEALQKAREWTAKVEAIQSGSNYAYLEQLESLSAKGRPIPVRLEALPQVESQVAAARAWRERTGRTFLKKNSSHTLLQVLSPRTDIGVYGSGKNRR
Description: KDM5A Assay (SAMDI mass spectrometry demethylase assay). It is filed as biochemical. The conditions noted are these: C-terminal FLAG-tagged KDM5A 1-1090; class symbols; read-out: 5A IC50. Summed up:
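FLAG-tagged KDM5A 1-1090 (20 nM) preincubated 30 min with compound in pH 8.0 HEPES buffer with ascorbate, Fe(II), TCEP, then reacted 150 min at 25 °C with H3K4me3 peptide (250 nM) and 2-oxoglutarate (15 μM). Formic acid-quenched; SAMDI-MS substrate/product AUC conversion; IC50 from dose-response.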
Broadly, the pIC50 is −log10 of the IC50, conventionally taken in molar units. On to `N[C@H]1CC[C@H](n2nc(-c3ccccc3)cc2Nc2cnccc2C(=O)O)CC1` [Compound 38, 3-((1-((trans)-4-aminocyclohexyl)-3-phenyl-1H-pyrazol-5-yl)amino)isonicotinic acid], for which the pIC50 is 5.00 to 6.00.

For the compound `O=C(O)c1ccncc1Nc1cc(-c2ccccc2)nn1[C@H]1CC[C@H](O)CC1` [Compound 39, 3-((1-((trans)-4-hydroxycyclohexyl)-3-phenyl-1H-pyrazol-5-yl)amino)isonicotinic acid], the negative-log IC50 (pIC50) was 4.00 to 5.00.

Take `O=C(O)c1ccncc1Nc1cc(-c2ccccc2)nn1[C@H]1CC[C@@H](O)CC1` [Compound 40, 3-((1-((cis)-4-Hydroxycyclohexyl)-3-phenyl-1H-pyrazol-5-yl)amino)isonicotinic acid]: the negative-log IC50 (pIC50) is 5.00 to 6.00.

For `O=C(O)c1ccncc1Nc1cn(-c2ccccc2)nc1-c1ccccc1` [Compound 41, 3-((1,3-Diphenyl-1H-pyrazol-4-yl)amino)isonicotinic acid], the pIC50 was 5.00 to 6.00.

On to `O=C(O)c1ccncc1Nc1nn(-c2ccccc2)cc1-c1ccccc1` [Compound 42, 3-((1,4-diphenyl-1H-pyrazol-3-yl)amino)isonicotinic acid], for which the pIC50 was 6.00 to 7.00.

Take `O=C(O)c1ccncc1Nc1c(-c2ccccc2)cnn1-c1ccccc1` [Compound 43, 3-((1,4-Diphenyl-1H-pyrazol-5-yl)amino)isonicotinic acid]: the pIC50 is 4.00 to 5.00.

On to `O=C(O)c1ccncc1Nc1nn(CCN2CCC(F)(F)CC2)cc1-c1ccc(F)cc1` [Compound 45, 3-((1-(2-(4,4-difluoropiperidin-1-yl)ethyl)-4-(4-fluorophenyl)-1H-pyrazol-3-yl)amino)isonicotinic acid], for which the negative logarithm of the IC50 (pIC50) was 7.00 to 9.00.

Regarding `O=C(O)c1ccncc1Nc1c(-c2ccc(F)cc2)cnn1CCN1CCC(F)(F)CC1` [Compound 46, 3-((1-(2-(4,4-difluoropiperidin-1-yl)ethyl)-4-(4-fluorophenyl)-1H-pyrazol-5-yl)amino) isonicotinic acid], the pIC50 was 5.00 to 6.00.

As for `CN(C)CCCn1cc(-c2ccccc2)c(Nc2cnccc2C(=O)O)n1` [Compound 51, 3-((1-(3-(dimethylamino)propyl)-4-phenyl-1H-pyrazol-3-yl)amino) isonicotinic acid], the negative logarithm of the IC50 (pIC50) was 7.00 to 9.00.

Turning to `CN(C)CCCn1ncc(-c2ccccc2)c1Nc1cnccc1C(=O)O` [Compound 52, 3-((1-(3-(dimethylamino)propyl)-4-phenyl-1H-pyrazol-5-yl)amino) isonicotinic acid], the negative-log IC50 (pIC50) was 5.00 to 6.00.

On to `Cc1c(-c2ccccc2)nn(C)c1Nc1cnccc1C(=O)O` [Compound 53, 3-((1,4-dimethyl-3-phenyl-1H-pyrazol-5-yl)amino)isonicotinic acid], for which the negative logarithm of the IC50 (pIC50) was 5.00 to 6.00.

For the compound `Cc1n[nH]c(-c2ccccc2)c1Nc1cnccc1C(=O)O` [Compound 55, 3-((5-methyl-3-phenyl-1H-pyrazol-4-yl)amino)isonicotinic acid], the pIC50 was 5.00 to 6.00.

As to `O=C(O)c1ccncc1Nc1cc(-c2ccccc2)nn1-c1ccncc1` [Compound 56, 3-((3-phenyl-1-(pyridin-4-yl)-1H-pyrazol-5-yl)amino) isonicotinic acid], the pIC50 was 5.00 to 6.00.

Turning to `O=C(O)c1ccncc1Nc1nn(CCN2CCC(F)(F)CC2)cc1C1CCCCC1` [Compound 57, 3-((4-cyclohexyl-1-(2-(4,4-difluoropiperidin-1-yl)ethyl)-1H-pyrazol-3-yl)amino)isonicotinic acid], the negative-log IC50 (pIC50) was 6.00 to 7.00.

Regarding `CNC(=O)c1ccc(-n2ncc(Nc3cnccc3C(=O)O)c2C)cc1` [Compound 58, 3-((5-methyl-1-(4-(methylcarbamoyl)phenyl)-1H-pyrazol-4-yl)amino) isonicotinic acid], the negative logarithm of the IC50 (pIC50) is 5.00 to 6.00.

Turning to `CNC(=O)c1cccc(-n2ncc(Nc3cnccc3C(=O)O)c2C)c1` [Compound 59, 3-((5-methyl-1-(3-(methylcarbamoyl)phenyl)-1H-pyrazol-4-yl)amino) isonicotinic acid], the pIC50 is 5.00 to 6.00.

Take `Cc1cc(Nc2cnccc2C(=O)O)nn1-c1ccccc1` [Compound 60, 3-((5-methyl-1-phenyl-1H-pyrazol-3-yl)amino)isonicotinic acid]: the negative logarithm of the IC50 (pIC50) is 5.00 to 6.00.

Consider `Cc1cc(Nc2cnccc2C(=O)O)n(-c2ccccc2)n1` [Compound 61, 3-((3-methyl-1-phenyl-1H-pyrazol-5-yl)amino) isonicotinic acid], for which the pIC50 was 5.00 to 6.00.

Consider `Cc1cn(-c2ccccc2)nc1Nc1cnccc1C(=O)O` [Compound 62, 3-((4-methyl-1-phenyl-1H-pyrazol-3-yl)amino) isonicotinic acid], for which the negative logarithm of the IC50 (pIC50) is 7.00 to 9.00.

On to `COc1ccccc1-n1cc(C)c(Nc2cnccc2C(=O)O)n1` [Compound 63, 3-((1-(2-methoxyphenyl)-4-methyl-1H-pyrazol-3-yl)amino) isonicotinic acid], for which the pIC50 was 7.00 to 9.00.

Consider `CN(C)CCn1cc(-c2ccccc2)c(Nc2cnccc2C(=O)O)n1` [Compound 64, 3-((1-(2-(dimethylamino)ethyl)-4-phenyl-1H-pyrazol-3-yl)amino)isonicotinic acid], for which the pIC50 was 7.00 to 9.00.

For the compound `CN(C)CCn1ncc(-c2ccccc2)c1Nc1cnccc1C(=O)O` [Compound 65, 3-((1-(2-(dimethylamino)ethyl)-4-phenyl-1H-pyrazol-5-yl)amino)isonicotinic acid], the pIC50 is 5.00 to 6.00.

Consider `Cc1c(-c2ccccc2)nn(CCN2CCC(F)(F)CC2)c1Nc1cnccc1C(=O)O` [Compound 66, 3-((1-(2-(4,4-difluoropiperidin-1-yl)ethyl)-4-methyl-3-phenyl-1H-pyrazol-5-yl)amino)isonicotinic acid], for which the pIC50 was 4.00 to 5.00.

For `Cc1c(Nc2cnccc2C(=O)O)nn(CCN2CCC(F)(F)CC2)c1-c1ccccc1` [Compound 67, 3-((1-(2-(4,4-difluoropiperidin-1-yl)ethyl)-4-methyl-5-phenyl-1H-pyrazol-3-yl)amino)isonicotinic acid], the pIC50 was 7.00 to 9.00.

Turning to `Cc1c(Nc2cnccc2C(=O)O)cnn1C1CCNCC1` [Compound 68, 3-((5-methyl-1-(piperidin-4-yl)-1H-pyrazol-4-yl)amino)isonicotinic acid], the negative logarithm of the IC50 (pIC50) is 5.00 to 6.00.

Take `Cc1nn(C2CCNCC2)cc1Nc1cnccc1C(=O)O` [Compound 69, 3-((3-methyl-1-(piperidin-4-yl)-1H-pyrazol-4-yl)amino) isonicotinic acid]: the pIC50 is 6.00 to 7.00.

As for `Cc1nn(-c2ccccc2C#N)cc1Nc1cnccc1C(=O)O` [Compound 70, 3-((1-(2-cyanophenyl)-3-methyl-1H-pyrazol-4-yl)amino) isonicotinic acid], the pIC50 was 5.00 to 6.00.

As to `Cc1cn(-c2ccccc2C#N)nc1Nc1cnccc1C(=O)O` [Compound 71, 3-((1-(2-cyanophenyl)-4-methyl-1H-pyrazol-3-yl)amino) isonicotinic acid], the negative-log IC50 (pIC50) is 7.00 to 9.00.

As to `O=C(O)c1ccncc1Nc1nn(C2CCOCC2)cc1-c1ccccc1` [Compound 72, 3-((4-phenyl-1-(tetrahydro-2H-pyran-4-yl)-1H-pyrazol-3-yl)amino)isonicotinic acid], the negative logarithm of the IC50 (pIC50) is 6.00 to 7.00.

For the compound `O=C(O)c1ccncc1Nc1nn(CCC(F)(F)F)cc1-c1ccccc1` [Compound 73, 3-((4-phenyl-1-(3,3,3-trifluoropropyl)-1H-pyrazol-3-yl)amino) isonicotinic acid], the negative logarithm of the IC50 (pIC50) was 7.00 to 9.00.

`O=C(O)c1ccncc1Nc1nn(CCC(F)(F)F)cc1-c1ccncc1` [Compound 74, 3-((4-(pyridin-4-yl)-1-(3,3,3-trifluoropropyl)-1H-pyrazol-3-yl)amino)isonicotinic acid]: the pIC50 was 6.00 to 7.00.

Consider `COc1ccc(-n2nc(C)c(Nc3cnccc3C(=O)O)c2C)cc1` [Compound 75, 3-((1-(4-methoxyphenyl)-3,5-dimethyl-1H-pyrazol-4-yl)amino)isonicotinic acid], for which the pIC50 is 4.00 to 5.00.

Regarding `Cc1nn(-c2ccc(O)cc2)c(C)c1Nc1cnccc1C(=O)O` [Compound 76, 3-((1-(4-hydroxyphenyl)-3,5-dimethyl-1H-pyrazol-4-yl)amino)isonicotinic acid], the negative logarithm of the IC50 (pIC50) is 4.00 to 5.00.

As for `Cc1nn(-c2ccccc2)c(C)c1Nc1cnccc1C(=O)O` [Compound 77, 3-((3,5-dimethyl-1-phenyl-1H-pyrazol-4-yl)amino)isonicotinic acid], the negative-log IC50 (pIC50) was 4.00 to 5.00.
